Reference: patent US20160083397A1, “PARTHENOLIDE DERIVATIVES AND THEIR MODULATION OF PROCESSES CONTROLLED BY REGULATED TRANSLATION” (THE BOARD OF TRUSTEES OF THE UNIVERSITY OF ARKANSAS, priority 2013, published 2016)

Experiments:
OVCAR-5 = settings: for GI50: OVCAR-5, Ovarian Cancer
HL-60(TB) = settings: for GI50: Leukemia
SK-MEL-5 = settings: for GI50: SK-MEL-5, Melanoma
T-47D = settings: for GI50: T-47D, Breast Cancer
MDA-MB-468 = settings: for GI50: MDA-MB-468, Breast Cancer
HT29 = settings: for GI50: HT29, Colon Cancer
SK-OV-3 = settings: for GI50: SK-OV-3, Ovarian Cancer
MOLT-4 = settings: for GI50: MOLT-4, Leukemia
SN12C = settings: for GI50: SN12C, Renal Cancer
HCT-116 = settings: for GI50: HCT-116, Colon Cancer
U251 = settings: for GI50: U251, CNS Cancer
MDA-MB-435 = settings: for GI50: MDA-MB-435, Melanoma
SR = settings: for GI50: SR, Leukemia
DU-145 = settings: for GI50: DU-145, Prostate Cancer
OVCAR-3 = settings: for GI50: OVCAR-3, Ovarian Cancer
SF-539 = settings: for GI50: SF-539, CNS Cancer
SK-MEL-28 = settings: for GI50: SK-MEL-28, Melanoma
Xenopus oocytes = assay: Xenopus oocyte maturation assay; type: cell-based; settings: for Xenopus Oocyte Maturation Assay, Without Progesterone: no progesterone, activator = able to induce GVBD in the absence of added progesterone; for Xenopus Oocyte Maturation Assay, With Progesterone: test compound 100 μM, progesterone 2 μg/mL, inhibitor = slowed rate of progesterone-dependent GVBD by 20% or more
Text: An in vivo Xenopus oocyte maturation assay was used to screen the compounds for their ability to modulate the activity of cell cycle control proteins, mRNA translational control proteins, and/or proteins involved in signaling pathways. In this assay, oocyte maturation (or cell cycle progression) is monitored phenotypically using an image capture system. Oocyte maturation is correlated with the appearance of a white spot at the animal pole of the darkly pigmented animal hemisphere of the oocyte. The white spot appears because the germinal vesicle (i.e., the large nucleus of the oocyte) migrates to the animal pole prior to meiotic germinal vesicle breakdown (GVBD).
Immature stage VI Xenopus oocytes were transferred to wells of a flat bottom 96-well plate containing about 178 μL of L15 culture media. The oocytes were transferred using wide mouth 200 μL pipette tips with minimal transfer of culture medium (e.g., about 20 μL). Generally, the oocytes oriented with the pigmented animal hemisphere facing up due to the higher density of the yolk-containing vegetal hemisphere. Incorrectly orientated oocytes were gently manipulated using a drawn-out capillary tube to rotate them into the correct orientation.
Forty-four test compounds were dissolved in DMSO to make 100× stock solutions. The test compounds were added to the appropriate wells at a final concentration of 100 μM (and 1% DMSO). Control oocytes were exposed to 1% DMSO only (generally the first and last wells of a plate contained the untreated, control oocytes). Sixteen hours later, progesterone was added to each well to stimulate progesterone-dependent oocyte maturation. For this, 2 μL of 1000× stock solution (2 mg/mL in ethanol) was added to the appropriate wells to yield a final concentration of 2 μg/mL. The rate of maturation in the control oocytes (i.e., those in the first and last wells) served as an intra-assay control for time taken for progesterone addition across the multi-well plate.
The 96-well plate was imaged from above (i.e., top-down) using a 36-megapixel Nikon D800 SLR camera with an AF Micro Nikkor 60 mm, f/2.8 lens, mounted on a dedicated copy stand (with adjustable flanking light sources). The plate was imaged prior to and after addition of progesterone (i.e., images were taken at regular intervals over a period of 7 hours). The high resolution images were digitally zoomed after capture to analyze the maturation status of oocytes in individual wells of the plate. Test compounds that slowed the rate of progesterone-dependent GVBD by 20% or more were classified as inhibitors (assessed relative to the time 50% of the population of control, vehicle treated oocytes had undergone GVBD (GVBD50)).
To determine whether the test compounds were able to activate oocyte maturation in a progesterone-independent manner, oocytes were incubated in the presence of the test compound (dissolved in DMSO) or DMSO only. The oocytes were imaged at regular intervals for the evidence of GVBD, or subsets of oocytes were removed at predetermined times and the activation status of key cell cycle control proteins (e.g., pMAP kinase, pCcd2, etc.) was analyzed by Western blotting. For example, activation of pMAP kinase is associated with increased phosphorylation whereas activation of pCdc2 is associated with decreased phosphorylation. Compounds were classified as an activator if they were able to induce GVBD in the absence of added progesterone. Further, compounds were classified as accelerators if they accelerated the rate of progesterone-stimulated GVBD, but were unable to induce GVBD in the absence of progesterone. The criteria for test compounds to be considered accelerators is that they must increase the rate of progesterone-dependent GVBD by 20% or more at one dose (assessed relative to the time 50% of the population of control, vehicle treated oocytes had undergone GVBD (GVBD50)).

HOP-62 = settings: for GI50: HOP-62, Lung Cancer
UACC-257 = settings: for GI50: UACC-257, Melanoma
CAKI-1 = settings: for GI50: CAKI-1, Renal Cancer
NCI-H226 = settings: for GI50: NCI-H226, Lung Cancer

13-(2-iodoimidazole)parthenolide [PNR-5-65]
CC50 (OVCAR-5): 52.5 µM
GI50 (OVCAR-5): 13.7 µM
GI50 (HL-60(TB)): 6.9 µM
CC50 (SK-MEL-5): 95.6 µM
GI50 (SK-MEL-5): 18.5 µM
CC50 (T-47D): 54.3 µM
GI50 (T-47D): 9.88 µM
CC50 (MDA-MB-468): 60.4 µM
GI50 (MDA-MB-468): 11.1 µM
CC50 (HT29): 61.5 µM
GI50 (HT29): 17.6 µM
CC50 (SK-OV-3): > 100 µM
GI50 (SK-OV-3): 47.3 µM
CC50 (MOLT-4): 97.9 µM
GI50 (MOLT-4): 19.6 µM
CC50 (SN12C): 84.1 µM
GI50 (SN12C): 17.7 µM
CC50 (HCT-116): 49 µM
GI50 (HCT-116): 11.8 µM
CC50 (U251): > 100 µM
GI50 (U251): 36.7 µM
CC50 (MDA-MB-435): 59.5 µM
GI50 (MDA-MB-435): 13.8 µM
CC50 (SR): > 100 µM
GI50 (SR): 13.6 µM
CC50 (DU-145): 68.3 µM
GI50 (DU-145): 18.8 µM
CC50 (OVCAR-3): 50.8 µM
GI50 (OVCAR-3): 6.85 µM
CC50 (SF-539): 60.8 µM
GI50 (SF-539): 16.7 µM
CC50 (SK-MEL-28): 73 µM
GI50 (SK-MEL-28): 16.1 µM
Xenopus Oocyte Maturation Assay, Without Progesterone (Xenopus oocytes): Not an activator or inhibitor
Xenopus Oocyte Maturation Assay, With Progesterone (Xenopus oocytes): Not an activator or inhibitor
CC50 (HOP-62): > 100 µM
GI50 (HOP-62): 47.4 µM
CC50 (UACC-257): 53.9 µM
GI50 (UACC-257): 12 µM
CC50 (CAKI-1): 49.5 µM
GI50 (CAKI-1): 6.61 µM
CC50 (NCI-H226): 62.3 µM
GI50 (NCI-H226): 15.4 µM

(E)-13-(3-thiopheno)parthenolide [PNR-5-53]
CC50 (OVCAR-5): > 100 µM
GI50 (OVCAR-5): 48.1 µM
GI50 (HL-60(TB)): 21.7 µM
CC50 (HL-60(TB); read-out: LC50, Leukemia): 99.9 µM
CC50 (SK-MEL-5): 60.4 µM
GI50 (SK-MEL-5): 16.3 µM
CC50 (T-47D): > 100 µM
GI50 (T-47D): 29.5 µM
CC50 (MDA-MB-468): > 100 µM
GI50 (MDA-MB-468): 17.7 µM
CC50 (HT29): > 100 µM
GI50 (HT29): 27 µM
CC50 (SK-OV-3): > 100 µM
GI50 (SK-OV-3): 44.9 µM
CC50 (MOLT-4): > 100 µM
GI50 (MOLT-4): 25.7 µM
CC50 (SN12C): > 100 µM
GI50 (SN12C): 25.8 µM
CC50 (HCT-116): > 100 µM
GI50 (HCT-116): 28.3 µM
CC50 (U251): > 100 µM
GI50 (U251): 21.7 µM
CC50 (MDA-MB-435): > 100 µM
GI50 (MDA-MB-435): 18.3 µM
CC50 (SR): > 100 µM
GI50 (SR): 20.7 µM
CC50 (DU-145): > 100 µM
GI50 (DU-145): 25.7 µM
CC50 (OVCAR-3): > 100 µM
GI50 (OVCAR-3): 20.5 µM
GI50 (SF-539): 16.1 µM
CC50 (SK-MEL-28): > 100 µM
GI50 (SK-MEL-28): 29.4 µM
Xenopus Oocyte Maturation Assay, Without Progesterone (Xenopus oocytes): Not an activator or inhibitor
Xenopus Oocyte Maturation Assay, With Progesterone (Xenopus oocytes): Not an activator or inhibitor
CC50 (HOP-62): > 100 µM
GI50 (HOP-62): 35.8 µM
CC50 (UACC-257): > 100 µM
GI50 (UACC-257): 16.6 µM
CC50 (CAKI-1): > 100 µM
GI50 (CAKI-1): 30.9 µM
CC50 (NCI-H226): > 100 µM
GI50 (NCI-H226): 30.2 µM
CC50 (UACC-62): 76.6 µM
GI50 (UACC-62; UACC-62, Melanoma): 13.8 µM
